Assay results as given in EP4563146A1 (IRBM S.P.A., priority 2023, dated 2025).
Read-outs that look alike come from different tables or passages of the source.

Test system: ZIKV replicon
Test: ZIKV replication inhibition assay (NanoLuc replicon in Vero cells)
Settings: Zika virus, Vero, 72 h
[1] = read-out: ZIKA Cell_Nanoluc, Vero cells with stable ZIKV replicon, 72 h, Nano-Glo readout

| SMILES | EC50 [1] | EC50 (read-out: ZIKA Cell_Nanoluc) |
| --- | --- | --- |
| COc1ncc(-c2ccc(C[n+]3cc([N-]C(=O)Nc4cc(NS(=O)(=O)CC5CCCCC5)cc(C(F)(F)F)c4)on3)cc2)c(C)n1 [Example 2, ((3-((Cyclohexylmethyl)sulfonamido)-5-(trifluoromethyl)phenyl)carbamoyl)(3-(4-(2-methoxy-4-methylpyrimidin-5-yl)benzyl)-1,2,3-oxadiazol-3-ium-5-yl)amide] | > 20000 nM | – |
| COc1ncc(-c2ccc(C[n+]3cc([N-]C(=O)Nc4cc(N)cc(C(F)(F)F)c4)on3)cc2)c(C)n1 [Example 3, ((3-Amino-5-(trifluoromethyl)phenyl)carbamoyl)(3-(4-(2-methoxy-4-methylpyrimidin-5-yl)benzyl)-1,2,3-oxadiazol-3-ium-5-yl)amide] | 100 to 1000 nM | – |
| C[n+]1cc([N-]C(=O)Nc2cc(NC(=O)Cc3ccccc3)cc(C(F)(F)F)c2)on1 [Example 4, (3-Methyl-1,2,3-oxadiazol-3-ium-5-yl)((3-(2-phenylacetamido)-5-(trifluoromethyl)phenyl)carbamoyl)amide] | 1000 to 20000 nM | – |
| NCc1ccccc1-c1ccc(C[n+]2cc([N-]C(=O)Nc3cc(NC(=O)Cc4ccccc4)cc(C(F)(F)F)c3)on2)nc1 [Example 5, (3-((5-(2-(Aminomethyl)phenyl)pyridin-2-yl)methyl)-1,2,3-oxadiazol-3-ium-5-yl)((3-(2-phenylacetamido)-5-(trifluoromethyl)phenyl)carbamoyl)amide] | 1000 to 20000 nM | – |
| Cn1cncc1-c1ccc(C[n+]2cc([N-]C(=O)Nc3cc(NC(=O)Cc4ccccc4)cc(C(F)(F)F)c3)on2)nc1 [Example 6, (3-((5-(1-Methyl-1H-imidazol-5-yl)pyridin-2-yl)methyl)-1,2,3-oxadiazol-3-ium-5-yl)((3-(2-phenylacetamido)-5-(trifluoromethyl)phenyl)carbamoyl)amide] | 1000 to 20000 nM | – |
| O=C(Cc1ccccc1)Nc1cc(NC(=O)[N-]c2c[n+](Cc3ccccn3)no2)cc(C(F)(F)F)c1 [Example 7, ((3-(2-Phenylacetamido)-5-(trifluoromethyl)phenyl)carbamoyl)(3-(pyridin-2-ylmethyl)-1,2,3-oxadiazol-3-ium-5-yl)amide] | 100 to 1000 nM | – |
| COc1ncc(-c2ccc(C[n+]3cc([N-]C(=O)Nc4cc(NC(=O)CC5CCCCC5)cc(C(F)(F)F)c4)on3)cc2)c(C)n1 [Example 8] | – | 1000 to 20000 nM |
| COc1ncc(-c2ccc(C[n+]3cc([N-]C(=O)Nc4cc(NC(=O)CCc5ccccc5)cc(C(F)(F)F)c4)on3)cc2)c(C)n1 [Example 9, (3-(4-(2-Methoxy-4-methylpyrimidin-5-yl)benzyl)-1,2,3-oxadiazol-3-ium-5-yl)((3-(3-phenylpropanamido)-5-(trifluoromethyl)phenyl)carbamoyl)amide] | 100 to 1000 nM | – |
| COc1ncc(-c2ccc(C[n+]3cc([N-]C(=O)Nc4cc(NS(=O)(=O)Cc5ccccc5)cc(C(F)(F)F)c4)on3)cc2)c(C)n1 [Example 10, (3-(4-(2-Methoxy-4-methylpyrimidin-5-yl)benzyl)-1,2,3-oxadiazol-3-ium-5-yl)((3-((phenylmethyl)sulfonamido)-5-(trifluoromethyl)phenyl)carbamoyl)amide] | 100 to 1000 nM | – |
| COc1ncc(-c2ccc(C[n+]3cc([N-]C(=O)Nc4cc(NC(C)=O)cc(C(F)(F)F)c4)on3)cc2)c(C)n1 [Example 11] | – | 1000 to 20000 nM |
| O=C(Cc1ccccc1)Nc1cc(NC(=O)[N-]c2c[n+](Cc3ccc(Br)cn3)no2)cc(C(F)(F)F)c1 [Example 12, (3-((5-Bromopyridin-2-yl)methyl)-1,2,3-oxadiazol-3-ium-5-yl)((3-(2-phenylacetamido)-5-(trifluoromethyl)phenyl)carbamoyl)amide] | 100 to 1000 nM | – |
| COc1ncc(-c2ccc(C[n+]3cc([N-]C(=O)Nc4cc(NC(=O)Cc5ccccc5)cc(C(F)(F)F)c4)on3)nc2)c(C)n1 [Example 13, (3-((5-(2-Methoxy-4-methylpyrimidin-5-yl)pyridin-2-yl)methyl)-1,2,3-oxadiazol-3-ium-5-yl)((3-(2-phenylacetamido)-5-(trifluoromethyl)phenyl)carbamoyl)amide] | 100 to 1000 nM | – |
| O=C(Cc1ccccc1)Nc1cc(NC(=O)[N-]c2c[n+](Cc3ccc(-c4cccc5c4CNC5)cn3)no2)cc(C(F)(F)F)c1 [Example 14, (3-((5-(Isoindolin-4-yl)pyridin-2-yl)methyl)-1,2,3-oxadiazol-3-ium-5-yl)((3-(2-phenylacetamido)-5-(trifluoromethyl)phenyl)carbamoyl)amide] | 1000 to 20000 nM | – |
| COc1ccc(CC(=O)Nc2cc(NC(=O)[N-]c3c[n+](Cc4ccc(-c5cnc(OC)nc5C)cc4)no3)cc(C(F)(F)F)c2)cc1 [Example 16, (3-(4-(2-Methoxy-4-methylpyrimidin-5-yl)benzyl)-1,2,3-oxadiazol-3-ium-5-yl)((3-(2-(4-methoxyphenyl)acetamido)-5-(trifluoromethyl)phenyl)carbamoyl)amide] | 1000 to 20000 nM | – |
| COc1ncc(-c2ccc(C[n+]3cc([N-]C(=O)Nc4cc(NC(=O)C5CCCC5)cc(C(F)(F)F)c4)on3)cc2)c(C)n1 [Example 18] | – | 100 to 1000 nM |
| COc1ncc(-c2ccc(C[n+]3cc([N-]C(=O)Nc4cc(NC(=O)Cc5cccnc5)cc(C(F)(F)F)c4)on3)cc2)c(C)n1 [Example 19, (3-(4-(2-Methoxy-4-methylpyrimidin-5-yl)benzyl)-1,2,3-oxadiazol-3-ium-5-yl)((3-(2-(pyridin-3-yl)acetamido)-5-(trifluoromethyl)phenyl)carbamoyl)amide] | 1000 to 20000 nM | – |
| COc1ncc(-c2ccc(C[n+]3cc([N-]C(=O)Nc4cc(NC(=O)Cc5ccccc5Cl)cc(C(F)(F)F)c4)on3)cc2)c(C)n1 [Example 21, ((3-(2-(2-Chlorophenyl)acetamido)-5-(trifluoromethyl)phenyl)carbamoyl)(3-(4-(2-methoxy-4-methylpyrimidin-5-yl)benzyl)-1,2,3-oxadiazol-3-ium-5-yl)amide] | 100 to 1000 nM | – |

| SMILES | EC50 [1] | EC50 (read-out: ZIKA Cell_Nanoluc) |
| --- | --- | --- |
| Cc1noc(C)c1-c1ccc([C@H](CN)[n+]2cc([N-]C(=O)Nc3cc(NC(=O)Cc4ccccc4)cc(C(F)(F)F)c3)on2)cc1 [Example 23, (R)-(3-(2-Amino-1-(4-(3,5-dimethylisoxazol-4-yl)phenyl)ethyl)-1,2,3-oxadiazol-3-ium-5-yl)((3-(2-phenylacetamido)-5-(trifluoromethyl)phenyl)-carbamoyl)amide] | 1000 to 20000 nM | – |
| Cc1noc(C)c1-c1ccc([C@@H](CN)[n+]2cc([N-]C(=O)Nc3cc(NC(=O)Cc4ccccc4)cc(C(F)(F)F)c3)on2)cc1 [Example 24, (S)-(3-(2-Amino-1-(4-(3,5-dimethylisoxazol-4-yl)phenyl)ethyl)-1,2,3-oxadiazol-3-ium-5-yl)((3-(2-phenylacetamido)-5-(trifluoromethyl)phenyl)carbamoyl)amide] | 1000 to 20000 nM | – |
| Cc1nc(N)ncc1-c1ccc(C[n+]2cc([N-]C(=O)Nc3cc(NC(=O)Cc4ccccc4)cc(C(F)(F)F)c3)on2)nc1 [Example 25, (3-((5-(2-Amino-4-methylpyrimidin-5-yl)pyridin-2-yl)methyl)-1,2,3-oxadiazol-3-ium-5-yl)((3-(2-phenylacetamido)-5-(trifluoromethyl)phenyl)carbamoyl)amide] | 1000 to 20000 nM | – |
| NCc1ccc(CC(=O)Nc2cc(NC(=O)[N-]c3c[n+](Cc4ccccn4)no3)cc(C(F)(F)F)c2)cc1 [Example 27, ((3-(2-(4-(Aminomethyl)phenyl)acetamido)-5-(trifluoromethyl)phenyl)carbamoyl)(3-(pyridin-2-ylmethyl)-1,2,3-oxadiazol-3-ium-5-yl)amide] | 1000 to 20000 nM | – |
| O=C(Cc1ccccc1)Nc1cc(NC(=O)[N-]c2c[n+](Cc3ccccc3)no2)cc(C(F)(F)F)c1 [Example 28, (3-Benzyl-1,2,3-oxadiazol-3-ium-5-yl)((3-(2-phenylacetamido)-5-(trifluoro-methyl)phenyl)carbamoyl)amide] | 1000 to 20000 nM | – |
| O=C([N-]c1c[n+](Cc2ccccn2)no1)Nc1cc(NC(=O)c2ccc3[nH]cnc3c2)cc(C(F)(F)F)c1 [Example 29, ((3-(1H Benzo[d]imidazole-5-carboxamido)-5-(trifluoromethyl)phenyl)-carbamoyl)(3-(pyridin-2-ylmethyl)-1,2,3-oxadiazol-3-ium-5-yl)amide] | 1000 to 20000 nM | – |
| O=C([N-]c1c[n+](Cc2ccccn2)no1)Nc1cc(NC(=O)c2ccc(CN3CCOCC3)o2)cc(C(F)(F)F)c1 [Example 30] | – | 1000 to 20000 nM |
| O=C([N-]c1c[n+](Cc2ccccn2)no1)Nc1cc(NC(=O)c2cccc(Oc3ccccc3)c2)cc(C(F)(F)F)c1 [Example 31] | – | 1000 to 20000 nM |
| CC(C(=O)Nc1cc(NC(=O)[N-]c2c[n+](Cc3ccccn3)no2)cc(C(F)(F)F)c1)c1ccccc1 (stereo not shown) [Example 32] | – | 100 to 1000 nM |
| Cc1oc(-c2ccccc2)nc1CC(=O)Nc1cc(NC(=O)[N-]c2c[n+](Cc3ccccn3)no2)cc(C(F)(F)F)c1 [Example 33] | – | 1000 to 20000 nM |
| O=C([N-]c1c[n+](Cc2ccccn2)no1)Nc1cc(NC(=O)c2ccnn2-c2ccccc2)cc(C(F)(F)F)c1 [Example 34] | – | 1000 to 20000 nM |
| O=C([N-]c1c[n+](Cc2ccccn2)no1)Nc1cc(NC(=O)c2cnn(Cc3ccccc3)c2)cc(C(F)(F)F)c1 [Example 35] | – | 1000 to 20000 nM |
| O=C(Cc1c[nH]c2cccnc12)Nc1cc(NC(=O)[N-]c2c[n+](Cc3ccccn3)no2)cc(C(F)(F)F)c1 [Example 36] | – | 1000 to 20000 nM |
| N#Cc1ccc2nc(C(=O)Nc3cc(NC(=O)[N-]c4c[n+](Cc5ccccn5)no4)cc(C(F)(F)F)c3)cn2c1 [Example 37] | – | 1000 to 20000 nM |
| O=C([N-]c1c[n+](Cc2ccccn2)no1)Nc1cc(NC(=O)C2CCCc3cn[nH]c32)cc(C(F)(F)F)c1 (stereo not shown) [Example 38, (3-(Pyridin-2-ylmethyl)-1,2,3-oxadiazol-3-ium-5-yl)((3-(4,5,6,7-tetrahydro-1H-indazole-7-carboxamido)-5-(trifluoromethyl)phenyl)carbamoyl)amide] | 1000 to 20000 nM | – |
| CN1Cc2cc(C(=O)Nc3cc(NC(=O)[N-]c4c[n+](Cc5ccccn5)no4)cc(C(F)(F)F)c3)sc2C1 [Example 39] | – | 1000 to 20000 nM |
| Cn1ccc(CC(=O)Nc2cc(NC(=O)[N-]c3c[n+](Cc4ccccn4)no3)cc(C(F)(F)F)c2)n1 [Example 40] | – | 1000 to 20000 nM |
